In brackets after ≈: the same amount, converted by molar mass.

One series has as its system CT26 cells. The series can be described thus: In vitro cytotoxicity in CT26 cells (CCK-8). The format is cell-based, mouse. On the procedure: Specifically, 5×10^3 CT26 cells were inoculated on 100 μL of DMEM and a Roswell Park Memorial Institute (RPMI) medium, respectively supplemented with 10% (v/v) FBS and 1% penicillin/streptomycin. […] DL and CD were also treated in the same volume and each of the concentrations. After 24 hours of the culturing, 10 μL of a WST-8 solution [2-2-methoxy-4-nitrophenyl)-3-(4-nitrophenyl)-5-(2,4-disulfophenyl)-2H-tetrazolium monosodium salt] was diluted with 100 μL of each medium, followed by culturing for 2 hours. Then, absorbance was measured using a microplate reader (PerkinElmer multimode plate reader) at 450 nm. Percentages of viable cells are shown by comparing the number of treated cells with that of untreated cells.

Series [1] can be described thus: Pharmacokinetics of OP (platinum) in rats, repeated oral dosing. The format is in vivo, SD rats. On the procedure: After SD rats were orally administered with various concentrations of ODSF repeatedly, the rats were divided into 5 groups (4 rats per group) to evaluate pharmacokinetic properties of OP. The rats were orally administered with a daily dose of 400 μL of OP (10) (OP dispersed in water, 10 mg/kg) or ODSF (2.5), ODSF (10), and ODSF (20) (containing 2.5 mg/kg, 10 mg/kg, and 20 mg/kg OP, respectively), for 14 days. […] Plasma concentrations of OP were measured based on the platinum concentration, after decomposition with nitric acid at 100° C., by inductively coupled plasma-mass spectroscopy (ICP-MS) at a high frequency power of 1450 W, at a coolant flow rate of 12 L/min, at an axillary flow rate of 2.3 L/min, and at a nebulizer flow rate of 0.89 L/min.
Plasma profiles of not only OP in water (10 mg/kg) [OP (10)] but also ODSF including 2.5 mg/kg, 10 mg/kg, and 20 mg/kg OP [ODSF (2.5), ODSF (10), and ODSF (20), respectively] were identified after 2-week continuous metronomic administration in comparison with a single IV bolus dose of 5 mg/kg OP [OP-IV (5)] administered on day 1 and day 14.

Another series in a line: in vivo. The conditions noted are these: SD, rat.
The mark [2] stands for this setting: oral once a day 14 days, 10 mg/kg OP.

The molecule `COC(=O)[C@H](CCCCN)NC(=O)CC[C@@H](C)[C@H]1CC[C@H]2[C@@H]3CC[C@@H]4C[C@H](O)CC[C@]4(C)[C@H]3C[C@H](O)[C@]12C` [DL, N^α-deoxycholyl-I-lysyl-methylester] displayed a Cell viability in the series with CT26 cells (CT26, carrier amount matching maximum SIMVA concentration of 200 μg/mL) of 77.1%.

On to `O=C1[O][Pt]2([NH][C@@H]3CCCC[C@H]3[NH]2)[O]C1=O` [OP, oxaliplatin], for which, in series [1] (IV, 5 mg/kg OP), the “AUCinf, on day 14” value amounted to 8120 ± 2470 ng·h/mL; the “AUClast, on day 14” value was determined as 5460 ± 1460 ng·h/mL; the “Cmax, on day 14” value was 1060 ± 337 ng/mL. The same molecule had a Bioavailability in series [1] (IV, 5 mg/kg OP (reference)) of 100%. Also, the “T1/2, on day 14” value in series [1] (IV, 5 mg/kg OP on day 1 and day 14, platinum, n=4) worked out at 15.8 ± 1.32 h. Also, in series [1] (setting [2]), the “AUCinf, on day 14” value turned out to be 1500 ± 196 ng·h/mL; the “AUClast, on day 14” value amounted to 775 ± 124 ng·h/mL; the Bioavailability is 7.09 ± 1.14%; the “Cmax, on day 14” value worked out at 53 ± 14 ng/mL. In series [1] (setting [2]), the “T1/2, on day 14” value worked out at 23.7 ± 0.723 h and the “Tmax, on day 14” value is listed as 0.833 ± 0.289 h.

Broadly, the half-life is the time in which the quantity being followed falls by half. High values mean slow decline, low ones rapid decline. As for `CCC(C)(C)C(=O)O[C@H]1C[C@@H](C)C=C2C=C[C@H](C)[C@H](CC[C@@H]3C[C@@H](O)CC(=O)O3)[C@H]21` [SIMVA in DMSO (50), simvastatin], in the series “in vivo” (plasma, po, 50 mg/kg), the half-life is 1.22 h.

One may read the Tmax as the time from dosing to the highest level. As for `CCC(C)(C)C(=O)O[C@H]1C[C@@H](C)C=C2C=C[C@H](C)[C@H](CC[C@@H]3C[C@@H](O)CC(=O)O3)[C@H]21` [SIMVA, simvastatin], the IC50 in the series on CT26 cells (Mus musculus, CT26, 24 h, read-out: IC50 (concentration of a drug required to kill 50% of cells)) came to 183 µg/mL (≈ 437 µM). Besides, the half-life in the series “in vivo” (in vivo, po, 50 mg/kg) is 1.6 h. In addition, the Tmax in “in vivo” (plasma, po, 50 mg/kg) was 1.5 h.

With `CCC(C)(C)C(=O)O[C@H]1C[C@@H](C)C=C2C=C[C@H](C)[C@H](CC[C@@H]3C[C@@H](O)CC(=O)O3)[C@H]21` [SIMVA-IP (10), simvastatin], in “in vivo” (plasma, ip, 10 mg/kg), the Tmax turned out to be 0.5 h and the half-life is 0.54 h.

Regarding `CCC(C)(C)C(=O)O[C@H]1C[C@@H](C)C=C2C=C[C@H](C)[C@H](CC[C@@H]3C[C@@H](O)CC(=O)O3)[C@H]21` [SIMVA-IV (10), simvastatin], the half-life in “in vivo” (plasma, iv, 10 mg/kg) is 0.39 h.
